Laboratory results from patent publication US4933363A, “Method for effecting systemic delivery of delta-9-tetrahydrocannabinol” (priority 1988, dated 1990).

How the values were obtained:
[1] = Bioavailability of parent delta-9-tetrahydrocannabinol from a suppository (GC/MS of blood samples); format: in vivo, monkey; conditions: 10 mg/suppository
Method: The parent drug delta-9-tetrahydrocannabinol was formulated in a suppository form at 10 mg/suppository using Witepsol-H15 as the base. One suppository was administered to a monkey and blood samples collected at the same time intervals as shown under Examples II-V. GC/MS analysis of these samples was carried out for delta-9-tetrahydrocannabinol and its metabolite.

[2] = 4×4 Latin square comparison of i.v., oral and suppository administration (GC/MS plasma levels); conditions: for Mean delta-9-tetrahydrocannabinol level in plasma: four monkeys; for concentration at 0.1 h / concentration at 0.25 h / concentration at 0.5 h / concentration at 1 h / concentration at 1.5 h / concentration at 2 h / concentration at 3 h / concentration at 4 h / concentration at 6 h / concentration at 8 h / concentration at 24 h: monkey, plasma
[3] = various suppository formulations; cited from earlier work
[4] = cited from earlier work
[5] = Suppository of N-methyl glucamine salt vs free hemisuccinate ester (GC/MS blood levels); conditions: equivalent to 10 mg parent drug per suppository, monkeys
[6] = Witepsol-H15, one monkey, GC/MS, all time points
[7] = i.v., 0.5 mg/kg parent equivalent, 0.0 hr

SMILES: CCCCCc1cc(O)c2c(c1)OC(C)(C)[C@@H]1CCC(C)=C[C@@H]21 [delta-9-tetrahydrocannabinol]
- bioavailability from a suppository dosage form ([1]; Witepsol-H15, monkey): lack of bioavailability
- delta-9-tetrahydrocannabinol detected in blood samples [1, 6]: Neither delta-9-tetrahydrocannabinol nor its metabolite was detected
- metabolite (11-nor-delta-9-tetrahydrocannabinol-9-COOH) detected in blood samples [1, 6]: Neither delta-9-tetrahydrocannabinol nor its metabolite was detected
- Mean delta-9-tetrahydrocannabinol level in plasma [2, 7]: 0.0 ng/mL
- concentration at 0.1 h ([2]; iv, 0.5 mg/kg): 1680 ng/mL
- concentration at 0.25 h ([2]; iv, 0.5 mg/kg): 335 ng/mL
- concentration at 0.5 h ([2]; iv, 0.5 mg/kg): 170 ng/mL
- concentration at 1 h ([2]; iv, 0.5 mg/kg): 102 ng/mL
- concentration at 1.5 h ([2]; iv, 0.5 mg/kg): 67.3 ng/mL
- concentration at 2 h ([2]; iv, 0.5 mg/kg): 55.8 ng/mL
- concentration at 3 h ([2]; iv, 0.5 mg/kg): 34 ng/mL
- concentration at 4 h ([2]; iv, 0.5 mg/kg): 22.8 ng/mL
- concentration at 6 h ([2]; iv, 0.5 mg/kg): 29 ng/mL
- concentration at 8 h ([2]; iv, 0.5 mg/kg): 17.3 ng/mL
- concentration at 24 h ([2]; iv, 0.5 mg/kg): 2.5 ng/mL
- concentration at 3 h ([2]; po, 10 mg): 0.5 ng/mL
- concentration at 4 h ([2]; po, 10 mg): 1.3 ng/mL
- concentration at 6 h ([2]; po, 10 mg): 2.3 ng/mL
- concentration at 8 h ([2]; po, 10 mg): 4.3 ng/mL
- concentration at 24 h ([2]; po, 10 mg): 0.8 ng/mL
- Mean delta-9-tetrahydrocannabinol level in plasma ([2]; oral, 10 mg in sesame oil, 0.0 hr): 0.0 ng/mL
- Mean delta-9-tetrahydrocannabinol level in plasma ([2]; oral, 10 mg in sesame oil, 0.1 hr): 0.0 ng/mL
- Mean delta-9-tetrahydrocannabinol level in plasma ([2]; oral, 10 mg in sesame oil, 0.25 hr): 0.0 ng/mL
- Mean delta-9-tetrahydrocannabinol level in plasma ([2]; oral, 10 mg in sesame oil, 0.5 hr): 0.0 ng/mL
- Mean delta-9-tetrahydrocannabinol level in plasma ([2]; oral, 10 mg in sesame oil, 1.0 hr): 0.0 ng/mL
- Mean delta-9-tetrahydrocannabinol level in plasma ([2]; oral, 10 mg in sesame oil, 1.5 hr): 0.0 ng/mL
- Mean delta-9-tetrahydrocannabinol level in plasma ([2]; oral, 10 mg in sesame oil, 2.0 hr): 0.0 ng/mL
- absorption and bioavailability via the rectal route [3]: no absorption, consequently no bioavailability achieved via the rectal route
- bioavailability via the oral routes ([4]; oral (e.g. chocolate cookies, sesame oil capsules)): quite low
- effect of fasting or food deprivation on absorption from the gastrointestinal tract ([4]; oral, fasting or food deprivation): decreased by fasting or food deprivation
- interpatient variability in absorption ([4]; oral, patients): extreme interpatient variability in absorption
- oral absorption ([4]; oral): slow and erratic

SMILES: CCCCCc1cc(OC(=O)CCC(=O)O)c2c(c1)OC(C)(C)[C@@H]1CCC(C)=C[C@@H]21 [Delta-9-tetrahydrocannabinol hemisuccinate ester]
- equivalency of intravenous dosage of ester to intravenous dosage of parent ([2]; i.v., 0.5 mg/kg parent drug equivalent, monkeys): equivalency of the intravenous dosage of the hemisuccinate ester of delta-9-tetrahydrocannabinol to the intravenous dosage of the parent delta-9-tetrahydrocannabinol
- Mean delta-9-tetrahydrocannabinol level in plasma [2, 7]: 0.0 ng/mL
- concentration at 0.25 h [2]: 14.8 ng/mL
- concentration at 0.5 h [2]: 33.5 ng/mL
- concentration at 1 h [2]: 46 ng/mL
- concentration at 1.5 h [2]: 53.5 ng/mL
- concentration at 2 h [2]: 53.3 ng/mL
- concentration at 3 h [2]: 50 ng/mL
- concentration at 4 h [2]: 38 ng/mL
- concentration at 6 h [2]: 18.5 ng/mL
- concentration at 8 h [2]: 12.8 ng/mL
- concentration at 24 h [2]: 1.3 ng/mL
- concentration at 0.1 h ([2]; iv, 0.5 mg/kg): 2060 ng/mL
- concentration at 0.25 h ([2]; iv, 0.5 mg/kg): 669 ng/mL
- concentration at 0.5 h ([2]; iv, 0.5 mg/kg): 251 ng/mL
- concentration at 1 h ([2]; iv, 0.5 mg/kg): 95.8 ng/mL
- concentration at 1.5 h ([2]; iv, 0.5 mg/kg): 65.3 ng/mL
- concentration at 2 h ([2]; iv, 0.5 mg/kg): 42.5 ng/mL
- concentration at 3 h ([2]; iv, 0.5 mg/kg): 26.3 ng/mL
- concentration at 4 h ([2]; iv, 0.5 mg/kg): 18.5 ng/mL
- concentration at 6 h ([2]; iv, 0.5 mg/kg): 13 ng/mL
- concentration at 8 h ([2]; iv, 0.5 mg/kg): 8 ng/mL
- concentration at 24 h ([2]; iv, 0.5 mg/kg): 2.5 ng/mL
- delivery of delta-9-tetrahydrocannabinol to the blood vs oral sesame seed oil formulation of parent ([2]; suppository vs oral 10 mg, monkeys): extraordinary superiority
- Mean delta-9-tetrahydrocannabinol level in plasma ([2]; suppository, 0.0 hr): 0.0 ng/mL
- Mean delta-9-tetrahydrocannabinol level in plasma ([2]; suppository, 0.1 hr): 0.0 ng/mL
- blood levels, free ester vs N-methyl glucamine salt suppository [5]: virtually equivalent
